Publication PMC8398847, “Isavuconazole: Thermodynamic Evaluation of Processes Sublimation, Dissolution and Partition in Pharmaceutically Relevant Media” (Molecules, 2021)
“And” between values parts separate entries of the source, which are not always exact repeats. Equal entries are not always repeated.

Columns and labels:
[1] = Vapor pressure by transpiration (inert gas-carrier transfer) method; sublimation thermodynamic functions; type: physicochemical; conditions: for lnp: p in Pa
Protocol: The thermodynamic functions of sublimation were calculated as the fitting coefficients of the Clarke and Glew equation [17]:(1) Rlnp/p^0=ΔcrgGm°(θ)/θ+ΔcrgHm°(θ)(1/θ−1/T)+ΔcrgCp,m°(θ)(θ/T−1+lnT/θ) where ΔcrgHm°(θ) is the standard molar sublimation enthalpy, ΔcrgGm°(θ) is the standard molar Gibbs energy of sublimation, and ΔcrgCp,m°(θ) is the difference between the constant pressure standard molar heat capacity Cp,m°(g) of the gaseous compound and the constant pressure standard molar heat capacity Cp,m°(cr) of the crystalline compound. The value is the arbitrary reference temperature θ = 298.15 K; p^0 = 10^5 Pa is the reference pressure.
The transpiration method was used for the sublimation experiment. A stream of an inert gas (nitrogen) was passed over a sample at the constant temperature and flow rate; saturation of the gas with the substance vapor was achieved by low transpiration rate of gas. Then, the sublimated quantity of condensed vapor was determined. The volume of the inert gas and the amount of the sublimated material were used for calculation the vapor pressure over the sample of compound at this temperature. The following procedure was used for determination the amount of sublimed substance. The condensed sample was dissolved in a known volume of solvent Vsol. The mass of the substance was determined by the measurement of absorbance A of its solution (spectrophotometer Cary-50, Varian, Palo Alto, CA, USA, Software Version 3.00 (339)). According to the Lambert–Beer law the concentration of the solution c (mol·L^−1) can express knowing a value of the extinction coefficient ε (l·mol^−1·cm^−1) of the studied compound dissolved in the solvent and an absorbing path length (l):A = εcl(5) where l is an absorbing path length. Calculation the mass of sublimed compound was performed according to the equation:m = cVsolM(6)
M is the molar mass of the studied substance.
The vapor pressure p at each temperature was determined from the amount of the substance collected within a known time:p = mRTa/VM(7) where V is the volume of the gaseous nitrogen evaluated from the time measurement and the flow rate at the flow meter temperature Ta and the atmospheric pressure. Uncertainties for transpiration experiment parameters (T, m, Ta, V) are reported as standard deviations (Table 1). The combined standard uncertainty of vapor pressure measurements were estimated taking into account uncertainties of all variables involved in eq 7.
The details of equipment and experimental procedure are given in [33]. The sublimation technique was tested with benzoic acid as standard. The experimental vapor pressure values were obtained in the temperature interval of (307–385) K and were in good agreement with the results of studies within the limits of experimental error (Figure S7). The standard sublimation enthalpy of benzoic acid measured by us was 90.5 ± 0.3 kJ·mol^−1 and consistent with recommended by IUPAC value—89.7 ± 0.5 kJ·mol^−1 [38]. Each experiment at fixed temperature was repeated three times with the standard deviation of up to 5%.

[2] = PXRD analysis of bottom phases after solubility experiments; type: physicochemical; conditions: all the studied solvents; no solvated forms
Protocol: The IVZ solubility values in buffer solutions of different acidity, ethanol, propanol, 1-octanol and hexane within the temperature range of 293.15–313.15 K were determined by the isothermal saturation method and are presented in Table 2 and Figure 5. After the solubility experiments, the bottom phases were removed from the saturated solutions and analyzed by the PXRD method.
After the solubility study was complete, PXRD analysis was performed on isavuconazole powders recovered from solvents. All samples were measured at 40 kV and 40 mA using a Bruker D8 Advance diffractometer with CuKa radiation (λ = 1.5406 Å) at room temperature. Diffraction patterns for the samples were collected by changing the angle of diffraction (2θ) from 5° to 30° with a step size 0.03°.

[3] = 298.15 K, experimental, Clarke and Glew equation

standard molar Gibbs energy of sublimation ΔcrgGm°(298.15 K) [1, 3]: 16.5 ± 0.048 kcal/mol
standard molar Gibbs energy of sublimation ΔcrgGm°(298.15 K) ([1]; 298.15 K, experimental, Clarke and Glew equation, listed as Isavuconazole): 16.5 kcal/mol
vapor pressure 10^3 p ([1]; 365.15 K): 1.95 Pa
saturated vapor pressure values ([1]; 365.15–383.15 K): 0.001–0.01 Pa
vapor pressure 10^3 p ([1]; 367.15 K): 2.50 Pa
vapor pressure 10^3 p ([1]; 369.15 K): 3.19 Pa
vapor pressure 10^3 p ([1]; 371.15 K): 4.02 Pa
vapor pressure 10^3 p ([1]; 372.15 K): 4.55 Pa
vapor pressure 10^3 p ([1]; 373.15 K): 5.11 Pa
vapor pressure 10^3 p ([1]; 374.15 K): 5.72 Pa
vapor pressure 10^3 p ([1]; 376.15 K): 7.22 Pa
vapor pressure 10^3 p ([1]; 378.15 K): 8.83 Pa
vapor pressure 10^3 p ([1]; 379.15 K): 9.83 Pa
vapor pressure 10^3 p ([1]; 380.15 K): 11.19 Pa
vapor pressure 10^3 p ([1]; 381.15 K): 12.30 Pa
vapor pressure 10^3 p ([1]; 382.15 K): 13.79 Pa
vapor pressure 10^3 p ([1]; 383.15 K): 15.37 Pa
lnp ([1]; 365.15 K): −6.241
lnp ([1]; 367.15 K): −5.991
lnp ([1]; 369.15 K): −5.749
lnp ([1]; 371.15 K): −5.515
lnp ([1]; 372.15 K): −5.393
lnp ([1]; 373.15 K): −5.277
lnp ([1]; 374.15 K): −5.163
lnp ([1]; 376.15 K): −4.931
lnp ([1]; 378.15 K): −4.729
lnp ([1]; 379.15 K): −4.622
lnp ([1]; 380.15 K): −4.493
lnp ([1]; 381.15 K): −4.398
lnp ([1]; 382.15 K): −4.283
lnp ([1]; 383.15 K): −4.175
ΔcrgSm°(298.15 K) ([1]; sublimation, 298.15 K): 230.4 ± 4.6 J·mol^−1·K^−1
ΔcrgCp,m° ([1]; sublimation, gas minus crystal heat capacity): −71.8 J·mol^−1·K^−1
solid-phase stability during solubility experiments (PXRD) [2]: stable
SMILES: C[C@@H](c1nc(-c2ccc(C#N)cc2)cs1)[C@](O)(Cn1cncn1)c1cc(F)ccc1F [IVZ, Isavuconazole]
standard molar enthalpy of sublimation ΔcrgHm°(298.15 K) [1, 3]: 33.01 kcal/mol and 33.01 ± 0.12 kcal/mol
